According to publication PMC10896388, “Hybrid Allosteric Modulators of M1 Muscarinic Receptors Enhance Acetylcholine Efficacy and Decrease Locomotor Activity and Turning Behaviors in Zebrafish” (Research Square, 2024):
“Also recorded” adds a separate entry of the source. Read-outs that look alike come from different tables or passages of the source.

What was measured:
[1] = target: T1, human M1 muscarinic receptors (Homo sapiens, UniProt P11229); assay: [3H]-arachidonic acid release in CHO cells expressing M1 receptors, with and without ACh; assay type: cell-based; design: expressed in transfected cells; host or cells: CHO cells (stably transfected CHO-hM1, from Mark Brann's laboratory, NIH); settings: for intrinsic agonist activity (in words): [3H]AA release in the absence of ACh, 10 µM; for modulation of ACh response (in words): modulators at 10 µM (amiodarone 30 µM)
T1 sequence (P11229 1-460): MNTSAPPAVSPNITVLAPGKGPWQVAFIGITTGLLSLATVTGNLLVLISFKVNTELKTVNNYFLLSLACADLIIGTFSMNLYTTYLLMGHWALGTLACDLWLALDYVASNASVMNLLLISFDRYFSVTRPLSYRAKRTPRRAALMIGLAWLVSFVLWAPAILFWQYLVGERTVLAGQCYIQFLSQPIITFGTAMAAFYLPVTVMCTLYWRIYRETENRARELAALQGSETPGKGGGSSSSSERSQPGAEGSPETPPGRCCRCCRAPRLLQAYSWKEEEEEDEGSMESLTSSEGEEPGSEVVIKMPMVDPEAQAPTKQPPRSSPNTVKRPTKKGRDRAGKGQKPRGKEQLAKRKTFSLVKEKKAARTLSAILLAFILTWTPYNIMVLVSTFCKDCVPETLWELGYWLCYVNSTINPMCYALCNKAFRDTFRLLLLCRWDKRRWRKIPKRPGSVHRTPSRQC
Protocol: CHO cells expressing human M1 muscarinic receptors were cultured at 37°C in a 5% CO2 atmosphere in F12 medium supplemented with 5% fetal bovine serum, 100 units/mL penicillin, and 100µg/mL streptomycin. These cells were obtained from Mark Brann’s laboratory when they were at NIH and have been in use by us and others for many years.[49]
Measurement of [^3H]AA release was performed as described in Stahl and Ellis.[24] Stably transfected CHO-hM1 cells were seeded on 24-well plates (Greiner Bio-One GmbH, Frickenhausen, Germany) at a density of 5.0 × 10^4 cells/well in 0.5 ml of F-12 medium. Cells were incubated until they attached (approximately 3 h), followed by the addition of [^3H]AA to a final concentration of 0.05 µCi of [^3H]AA per well. The cells were then grown for 16 to 20 h before the assay was performed. [^3H]AA release was measured in Eagle’s basal medium with 20 mM HEPES and 2 mg/ml fatty acid-free bovine serum albumin (EM-BSA). Cells were rinsed twice with EM-BSA, followed by the addition of EM-BSA media containing experimental agents and incubated for 1 h at 37°C. The assay was terminated by aspiration of the media, and the amount of [^3H]AA released was determined by liquid scintillation counting (Beckman-Coulter LS6500). […]
Tabulated [^3H]AA release data are represented as a fraction of maximal release elicited by ACh or as the fraction of release elicited by the relevant concentration of ACh alone, as indicated. Dose-response curves were normalized to the maximal response of ACh without allosteric ligand. Where indicated, response curves were analyzed using the empirical four-parameter equation: […] where X is the concentration of the ligand used, Y is the amount of response, C50 is the concentration of the ligand that produces 50% of the maximal effect, Top and Bottom are the top and bottom plateaus of the curve, and n is related to the Hill slope for the curve. Where indicated, families of response curves were analyzed according to an allosteric operational model:[50],[51]

[2] = system: wild-type (AB) zebrafish (Danio rerio); assay type: in vivo; settings: zebrafish larvae; 30-minute spontaneous swimming period; mean ± s.e.m., N = 12; test concentration not given
[3] = system: wild-type (AB) zebrafish (Danio rerio); assay: Maximum tolerated concentration (MTC) determination in zebrafish larvae; assay type: in vivo; settings: for MTC (maximum tolerated concentration): 5 dpf zebrafish larvae, after 24-hr exposure; for signs of toxicity (in words): zebrafish, concentrations up to 30 μM, the highest concentration tested
Protocol: Determination of maximum tolerated concentration (adapted from Berghmans)[52] was completed by placing 5 days post fertilization (dpf) wild-type zebrafish larvae in a 24 well plate at 6 fish per well, and one compound concentration per well. […] Death was determined by the absence of heartbeat. Additional endpoints were used to assess toxicity at non-lethal concentrations such as startle capacity (poke stimulus), abnormalities in swimming behavior (loss of dorsoventral balance), and gross morphological deformities (bent body). […] The MTC determination was used to select three doses of each compound (low, medium, high dose) to be used in behavioral assays.

[4] = target: T1, human M1 muscarinic receptors; assay: Full ACh dose-response curves of [3H]AA release fitted to an allosteric operational model
Protocol: Tabulated [^3H]AA release data are represented as a fraction of maximal release elicited by ACh or as the fraction of release elicited by the relevant concentration of ACh alone, as indicated. Dose-response curves were normalized to the maximal response of ACh without allosteric ligand. Where indicated, response curves were analyzed using the empirical four-parameter equation: Y=Top+Bottom−Top/1+X/C50^n where X is the concentration of the ligand used, Y is the amount of response, C50 is the concentration of the ligand that produces 50% of the maximal effect, Top and Bottom are the top and bottom plateaus of the curve, and n is related to the Hill slope for the curve. Where indicated, families of response curves were analyzed according to an allosteric operational model:[50],[51]
where EM is the maximal response; A is the concentration of ACh; B is the concentration of the allosteric ligand; τA and τB represent the operational efficacies of A and B, respectively; KA and KB are the equilibrium dissociation constants of A and B; and α and β represent the cooperativities between A and B in terms of binding and activation, respectively. Curve-fitting was carried out with GraphPad Prism, version 5.0 or 6.0 (San Diego CA).

[5] = system: wild-type (AB) zebrafish (Danio rerio); assay: animal or person; assay type: in vivo; settings: for effect on locomotor activity and turning behaviors (in words) / concentration with significant effects on zebrafish behavior: AB zebrafish; for effect on locomotor activity and turning behaviors (in words): 30-minute spontaneous swimming period; for concentration with significant effects on zebrafish behavior: compared with BQCA; for EC50: Danio rerio, AB zebrafish larvae; for Therap. Index: zebrafish, apparently MTC / MEC
Protocol: The movement of larval zebrafish was monitored with the Noldus behavior recording system (Noldus Information Technology, Leesburg VA) and quantified using EthoVision® XT 15 software (Noldus Information Technology, Leesburg VA). Five-dpf zebrafish larvae were exposed to a range of nonlethal concentrations of compounds in a 24-well plate with appropriate controls. The plate was immediately placed in the incubator for a 30-minute exposure period. After 30 minutes, the plate was transferred to the Noldus system and swimming behavior was recorded in 100% light for 30 minutes to measure spontaneous swimming behavior. The light was switched off for 10 minutes (dark period) and then switched on for 10 minutes (light period), which was then repeated for two additional cycles. In total, the larvae were exposed to three cycles of alternating 10-minute dark and light periods (100% darkness-to-100% light). Each drug challenge was conducted on three separate plates with n = 6 larvae/dose/plate.
Absolute turn angle (TA) and angular velocity provided measures of the extent of turning behavior, while the intra-individual variance of turn angle quantified how consistently (low variance) or inconsistently (high variance) fish turned. A lowered intra-individual variance of turning reflected repeatedly performing the same turning behavior, a stereotypy.[53]
All data for exposure and the behavioral end points were analyzed by one-way ANOVA (factor: drug concentration) followed by a Dunnett’s multiple comparisons test for post hoc significance between drug concentration and control group. Statistically significant differences are noted as follows; *, p < 0.05; **, p < 0.01; ***, p < 0.001.

[6] = best-fit parameter, allosteric operational model, Em set to 2.0, ACh as agonist
[7] = read-out: EC50 for decreasing locomotor activity
[8] = read-out: EC50 for decreasing repetitive behaviors (increasing angular velocity)

Compound | intrinsic agonist activity (in words) [1] | increase in mAChR activity compared to treatment with ACh alone ([1]; [3H]AA release, CHO-hM1, predominantly at higher doses of ACh (Table 2, not available)) [%] | Angular Velocity, percentage change relative to controls [2] [%] | Distance Moved, percentage change relative to controls [2] [%] | Variance Turn Angle, percentage change relative to controls [2] [%] | MTC (maximum tolerated concentration) [3] [µM] | Kd [4] [nM] | Activation cooperativity, A-B, β [4, 6] | Binding cooperativity, A-B, α [4, 6] | Operational Efficacy-B, τB [4, 6] | effect on locomotor activity and turning behaviors (in words) [5] | modulation of ACh response (in words) ([1]; [3H]AA release, CHO-hM1) | Kb [4] [nM] | concentration with significant effects on zebrafish behavior [5] [µM] | EC50 [5, 7] [nM] | EC50 [5, 8] [nM] | Therap. Index [5] | signs of toxicity (in words) [3] | MEC ([5]; zebrafish larvae, locomotor behaviors, abbreviation not defined in the paper) [µM]
CCCCc1oc2ccccc2c1C(=O)c1cc(I)c(OCCN(CC)C(=O)c2ccccc2)c(I)c1 [Compound 5b, N-(2-(4-(2-butylbenzofuran-3-carbonyl)-2,6-diiodophenoxy)ethyl)-N-ethylbenzamide] | lacked intrinsic activity | 80 | 80.4 ± 11.5 | 87.7 ± 13.5 | 77.8 ± 9.3 | 10 | – | – | – | – | – | – | – | – | – | – | – | – | –
CCN(CC)CCOc1ccc(CN2C(=O)C(=O)c3ccccc32)cc1 [Compound 7, 1-(4-(2-(diethylamino)ethoxy)benzyl)indoline-2,3-dione] | lacked intrinsic activity | – | – | – | – | 10 | 631 | 0.99 ± 0.12 | 0.18 ± 0.095 | 0.032 ± 0.02 | not effective in reducing locomotor activity or elevating angular velocity or variance of turn angle | primarily decreased potency and slightly enhanced the efficacy of ACh activity; also recorded: decreased ACh potency with little impact on ACh efficacy | – | – | – | – | – | – | –
COc1c(I)cc(CN2C(=O)C(=O)c3ccccc32)cc1I [Compound 8a, 1-(3,5-diiodo-4-methoxybenzyl)indoline-2,3-dione] | – | – | – | – | – | > 30 | 550 | – | 0.69 ± 0.24 | 0.17 ± 0.03 | reduced locomotor activity | significant enhancement of ACh activity; also recorded: dramatically enhanced ACh efficacy | 550 | 1 | 5600 | 2600 | > 100 | neither produced any signs of toxicity | –
COc1c(Br)cc(CN2C(=O)C(=O)c3ccccc32)cc1Br [Compound 8c, 1-(3,5-dibromo-4-methoxybenzyl)indoline-2,3-dione] | – | – | – | – | – | > 30 | 2950 | – | 0.98 ± 0.39 | 0.33 ± 0.06 | – | dramatically enhanced ACh efficacy | 3000 | 1 | 1000 | 1100 | – | neither produced any signs of toxicity | –
VU0238408 [reference compound] | – | – | 180.1 ± 20.3 | 34.6 ± 4.0 | 146.6 ± 12.4 | 30 | – | – | – | – | – | – | – | – | – | – | 30 | – | 1
